Assay results from patent US4388235A, “Synthesis of peptides” (Armour Pharmaceutical Company, priority 1982, dated 1983).
Positions of bridges follow the written chain, without caps; N, C: chain ends. Residues, ends and D or L forms follow the SMILES beside them.

Test: biological potency assay of the purified product (MRC units)
Assay type: in vivo
Conditions: freeze-dried product of Example 1

For `CC(C)C[C@H](NC(=O)[C@H](CCCCN)NC(=O)CNC(=O)[C@H](CC(C)C)NC(=O)[C@@H](NC(=O)[C@@H]1CSSC[C@H](N)C(=O)N[C@@H](CO)C(=O)N[C@@H](CC(N)=O)C(=O)N[C@@H](CC(C)C)C(=O)N[C@@H](CO)C(=O)N[C@@H]([C@@H](C)O)C(=O)N1)C(C)C)C(=O)N[C@@H](CO)C(=O)N[C@@H](CCC(N)=O)C(=O)N[C@@H](CCC(=O)O)C(=O)N[C@@H](Cc1c[nH]cn1)C(=O)N[C@@H](CCCCN)C(=O)N[C@@H](CC(C)C)C(=O)N[C@@H](CCC(N)=O)C(=O)N[C@H](C(=O)N[C@@H](Cc1ccc(O)cc1)C(=O)N1CCC[C@H]1C(=O)N[C@@H](CCCNC(=N)N)C(=O)N[C@H](C(=O)N[C@@H](CC(N)=O)C(=O)N[C@H](C(=O)NCC(=O)N[C@@H](CO)C(=O)NCC(=O)N[C@H](C(=O)N1CCC[C@H]1C(N)=O)[C@@H](C)O)[C@@H](C)O)[C@@H](C)O)[C@@H](C)O` [des Leu^16 -SCT, Des-Leu^16 -salmon calcitonin] (H-CSNLSTCVLGKLSQEHKLQTYPRTNTGSGTP-NH2; disulfide 1-7), the assayed potency was 580 MRC units per mg.
